The values that follow are results of earlier work, collected in patent US4806659A, “Tannin compounds” (Kabushiki Kaisha Tsumura Juntendo, priority 1985, dated 1989).

The conditions of this data set: known drugs, schizophrenia.
For the compound `CCN1CCCC1CNC(=O)c1cc(S(N)(=O)=O)ccc1OC` (stereo not drawn) [sulpiride], the sedative effect result is recorded as “mild sedative effect”.

On to `O=C(CCCN1CCC(O)(c2ccc(Cl)cc2)CC1)c1ccc(F)cc1` [haloperidol], for which the “anti-hallucination and -delution effects” value is “strong anti-hallucination and -delution effects”.

In the case of `OCCN1CCN(CCCN2c3ccccc3Sc3ccc(C(F)(F)F)cc32)CC1` [fluphenazine], the “anti-hallucination and -delution effects” value is “strong anti-hallucination and -delution effects”.

On to `OCCN1CCN(CCCN2c3ccccc3Sc3ccc(Cl)cc32)CC1` [perphenazine], for which the “anti-hallucination and -delution effects” value was “strong anti-hallucination and -delution effects”.

Regarding `CN(C)CCCN1c2ccccc2Sc2ccc(Cl)cc21` [chlorpromazine], the sedative effect result was “strong sedative effect”.

Regarding `COc1ccc2c(c1)N(C[C@H](C)CN(C)C)c1ccccc1S2` [Levomepromazine], the sedative effect entry is reported as “strong sedative effect”.
